# Measurements as given in US9029386B2, “Pyridine derivatives useful as kinase inhibitors” (YM Biosciences Australia Pty Ltd, priority 2006, dated 2015).
# Assays:
# Assay type in all cases: biochemical
# [1] = target: T1, PTK5(h) (Homo sapiens, UniProt P42685); assay: KinaseProfiler assay (Upstate), PTK5
# T1 construct: purchased Upstate Biotechnology (Dundee, UK), KinaseProfiler service
# Protocol: (§1) Further enzyme assays were conducted at Upstate Biotechnology (Dundee, UK) in the KinaseProfiler™ Assay system.
# (§2) The general protocol is as follows. All kinases are pre-diluted to a 10× working concentration prior to addition into the assay. The composition of the dilution buffer for the kinases is 20 mM MOPS pH 7.0, 1 mM EDTA, 0.1% β-mercaptoethanol, 0.01% Brij-35, 5% glycerol, 1 mg/ml BSA. All substrates are dissolved and diluted to working stocks in de-ionised water.
# [2] = target: T2, Hck(h) (Homo sapiens, UniProt P08631); assay: KinaseProfiler assay (Upstate), Hck
# T2 construct: purchased Upstate Biotechnology (Dundee, UK), KinaseProfiler service
# Protocol: as §1, §2
# (§3) In a final reaction volume of 25 μl, Hck (h) (5-10 mU) is incubated with 8 mM MOPS pH 7.0, 0.2 mM EDTA, 250 μM […] (Cdc2 peptide), 10 mM MgAcetate and [γ-33P-ATP] (specific activity approx. 500 cpm/pmol, concentration as required). The reaction is initiated by the addition of the MgATP mix. After incubation for 40 minutes at room temperature, the reaction is stopped by the addition of 5 μl of a 3% phosphoric acid solution. 10 μl of the reaction is then spotted onto a P30 filtermat and washed three times for 5 minutes in 75 mM phosphoric acid and once in methanol prior to drying and scintillation counting.
# [3] = target: T3, EphA3(h) (Homo sapiens, UniProt P29320); assay: KinaseProfiler assay (Upstate), EphA3
# T3 construct: purchased Upstate Biotechnology (Dundee, UK), KinaseProfiler service
# T3 sequence (P29320 21-983): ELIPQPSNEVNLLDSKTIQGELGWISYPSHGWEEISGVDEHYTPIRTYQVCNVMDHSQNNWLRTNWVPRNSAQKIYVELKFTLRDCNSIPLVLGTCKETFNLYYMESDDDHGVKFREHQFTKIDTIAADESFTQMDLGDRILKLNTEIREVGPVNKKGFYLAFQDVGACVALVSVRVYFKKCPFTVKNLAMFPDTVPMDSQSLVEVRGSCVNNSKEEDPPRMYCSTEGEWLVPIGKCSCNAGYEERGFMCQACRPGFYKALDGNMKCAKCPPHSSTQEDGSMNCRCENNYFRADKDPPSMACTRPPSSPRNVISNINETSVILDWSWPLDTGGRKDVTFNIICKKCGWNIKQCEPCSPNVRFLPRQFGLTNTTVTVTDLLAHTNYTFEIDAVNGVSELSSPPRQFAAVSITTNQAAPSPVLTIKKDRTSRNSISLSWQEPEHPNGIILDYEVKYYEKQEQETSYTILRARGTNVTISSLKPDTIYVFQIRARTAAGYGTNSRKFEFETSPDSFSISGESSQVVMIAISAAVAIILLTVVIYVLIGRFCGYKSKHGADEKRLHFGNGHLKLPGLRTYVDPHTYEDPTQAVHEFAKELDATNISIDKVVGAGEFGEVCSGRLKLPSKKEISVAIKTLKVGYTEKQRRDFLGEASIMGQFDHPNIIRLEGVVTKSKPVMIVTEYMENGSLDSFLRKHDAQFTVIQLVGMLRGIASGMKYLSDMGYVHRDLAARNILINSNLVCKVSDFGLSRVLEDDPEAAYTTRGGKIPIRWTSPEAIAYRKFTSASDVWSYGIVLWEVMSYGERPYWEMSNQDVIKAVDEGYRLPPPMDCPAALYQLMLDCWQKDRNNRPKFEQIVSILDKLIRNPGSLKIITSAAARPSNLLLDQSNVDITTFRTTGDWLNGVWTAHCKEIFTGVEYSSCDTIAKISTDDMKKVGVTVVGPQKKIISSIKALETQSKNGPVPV
# Protocol: as §1, §2
# In a final reaction volume of 25 EphA3 (h) (5-10 mU) is incubated with 8 mM MOPS pH 7.0, 0.2 mM EDTA, 0.1 mg/ml poly(Glu, Tyr) 4:1, 10 mM MgAcetate and [γ-33P-ATP] (specific activity approx. 500 cpm/pmol, concentration as required). The reaction is initiated by the addition of the MgATP mix. After incubation for 40 minutes at room temperature, the reaction is stopped by the addition of 5 μl of a 3% phosphoric acid solution. 10 μl of the reaction is then spotted onto a Filtermat A and washed three times for 5 minutes in 75 mM phosphoric acid and once in methanol prior to drying and scintillation counting.
# [4] = target: T4, Ret(h) (Homo sapiens, UniProt P07949); assay: KinaseProfiler assay (Upstate), Ret
# T4 construct: purchased Upstate Biotechnology (Dundee, UK), KinaseProfiler service
# Protocol: as §1, §2
# In a final reaction volume of 25 μl, Ret (h) (5-10 mU) is incubated with 8 mM MOPS pH 7.0, 0.2 mM EDTA, 250 μM […], 10 mM MgAcetate and [γ-33P-ATP] (specific activity approx. 500 cpm/pmol, concentration as required). The reaction is initiated by the addition of the MgATP mix. After incubation for 40 minutes at room temperature, the reaction is stopped by the addition of 5 μl of a 3% phosphoric acid solution. 10 μl of the reaction is then spotted onto a P30 filtermat and washed three times for 5 minutes in 75 mM phosphoric acid and once in methanol prior to drying and scintillation counting.
# [5] = target: T5, Lck(h) (Homo sapiens, UniProt P06239); assay: KinaseProfiler assay (Upstate), Lck
# T5 construct: purchased Upstate Biotechnology (Dundee, UK), KinaseProfiler service
# Protocol: as §1, §2
# as §3, with “Lck” for “Hck”, “50” for “8”, “Tris” for “MOPS”, “7.5, 0.1” for “7.0, 0.2”, “EGTA, 0.1 mM Na3VO4,” for “EDTA,”
# T5 sequence (P06239 whole entry): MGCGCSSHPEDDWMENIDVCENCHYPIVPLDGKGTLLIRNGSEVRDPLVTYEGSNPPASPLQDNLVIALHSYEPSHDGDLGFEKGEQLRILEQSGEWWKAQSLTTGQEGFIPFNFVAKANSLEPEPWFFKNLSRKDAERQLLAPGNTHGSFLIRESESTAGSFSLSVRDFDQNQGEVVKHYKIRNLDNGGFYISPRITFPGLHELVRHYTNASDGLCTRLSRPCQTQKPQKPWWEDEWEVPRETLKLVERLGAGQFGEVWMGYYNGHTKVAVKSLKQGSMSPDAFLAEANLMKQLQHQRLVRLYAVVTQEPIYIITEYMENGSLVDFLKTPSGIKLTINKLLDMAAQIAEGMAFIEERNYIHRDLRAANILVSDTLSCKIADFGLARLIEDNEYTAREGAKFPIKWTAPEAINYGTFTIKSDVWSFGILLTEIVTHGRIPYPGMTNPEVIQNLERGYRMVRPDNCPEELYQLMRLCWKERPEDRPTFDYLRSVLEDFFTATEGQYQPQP
# T2 sequence (P08631 whole entry): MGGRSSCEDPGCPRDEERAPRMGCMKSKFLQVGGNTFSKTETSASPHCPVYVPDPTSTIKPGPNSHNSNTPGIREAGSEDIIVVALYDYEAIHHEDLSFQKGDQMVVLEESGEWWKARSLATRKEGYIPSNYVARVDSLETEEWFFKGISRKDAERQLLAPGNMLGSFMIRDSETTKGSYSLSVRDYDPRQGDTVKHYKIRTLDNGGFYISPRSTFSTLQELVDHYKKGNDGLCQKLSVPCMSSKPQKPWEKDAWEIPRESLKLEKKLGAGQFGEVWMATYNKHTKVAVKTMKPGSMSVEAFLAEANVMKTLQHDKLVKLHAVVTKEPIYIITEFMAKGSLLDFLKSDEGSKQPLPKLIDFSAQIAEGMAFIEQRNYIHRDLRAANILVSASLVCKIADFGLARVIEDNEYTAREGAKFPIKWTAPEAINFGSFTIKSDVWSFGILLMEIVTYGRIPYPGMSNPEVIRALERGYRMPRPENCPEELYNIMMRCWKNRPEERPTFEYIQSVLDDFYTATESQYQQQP
# T4 sequence (P07949 29-1114): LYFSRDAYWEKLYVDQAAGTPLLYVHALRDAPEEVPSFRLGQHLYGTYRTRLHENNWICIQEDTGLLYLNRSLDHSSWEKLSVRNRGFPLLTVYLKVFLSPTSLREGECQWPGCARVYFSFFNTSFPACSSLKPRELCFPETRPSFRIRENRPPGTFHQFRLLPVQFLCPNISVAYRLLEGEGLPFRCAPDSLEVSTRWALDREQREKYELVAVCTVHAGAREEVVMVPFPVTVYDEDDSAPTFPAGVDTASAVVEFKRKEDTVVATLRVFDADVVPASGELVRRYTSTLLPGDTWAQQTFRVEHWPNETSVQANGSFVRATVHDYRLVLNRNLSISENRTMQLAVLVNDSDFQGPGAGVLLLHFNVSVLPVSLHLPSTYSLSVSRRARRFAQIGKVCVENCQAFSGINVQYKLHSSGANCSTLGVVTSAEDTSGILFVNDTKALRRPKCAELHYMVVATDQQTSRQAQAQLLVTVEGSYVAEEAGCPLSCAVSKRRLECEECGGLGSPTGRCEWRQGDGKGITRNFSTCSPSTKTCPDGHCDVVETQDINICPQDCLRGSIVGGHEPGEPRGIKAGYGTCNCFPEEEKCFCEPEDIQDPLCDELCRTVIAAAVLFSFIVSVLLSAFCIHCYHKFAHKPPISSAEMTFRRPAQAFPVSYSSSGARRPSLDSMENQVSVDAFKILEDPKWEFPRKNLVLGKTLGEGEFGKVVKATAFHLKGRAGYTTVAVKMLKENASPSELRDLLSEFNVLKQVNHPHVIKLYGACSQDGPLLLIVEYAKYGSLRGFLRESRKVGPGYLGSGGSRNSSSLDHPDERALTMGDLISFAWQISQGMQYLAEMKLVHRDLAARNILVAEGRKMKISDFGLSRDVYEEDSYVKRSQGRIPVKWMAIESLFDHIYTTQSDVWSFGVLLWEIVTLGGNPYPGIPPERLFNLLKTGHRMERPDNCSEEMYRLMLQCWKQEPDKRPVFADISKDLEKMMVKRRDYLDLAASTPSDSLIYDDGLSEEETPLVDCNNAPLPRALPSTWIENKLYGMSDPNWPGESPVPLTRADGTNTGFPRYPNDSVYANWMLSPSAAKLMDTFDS
# T1 sequence (P42685 whole entry): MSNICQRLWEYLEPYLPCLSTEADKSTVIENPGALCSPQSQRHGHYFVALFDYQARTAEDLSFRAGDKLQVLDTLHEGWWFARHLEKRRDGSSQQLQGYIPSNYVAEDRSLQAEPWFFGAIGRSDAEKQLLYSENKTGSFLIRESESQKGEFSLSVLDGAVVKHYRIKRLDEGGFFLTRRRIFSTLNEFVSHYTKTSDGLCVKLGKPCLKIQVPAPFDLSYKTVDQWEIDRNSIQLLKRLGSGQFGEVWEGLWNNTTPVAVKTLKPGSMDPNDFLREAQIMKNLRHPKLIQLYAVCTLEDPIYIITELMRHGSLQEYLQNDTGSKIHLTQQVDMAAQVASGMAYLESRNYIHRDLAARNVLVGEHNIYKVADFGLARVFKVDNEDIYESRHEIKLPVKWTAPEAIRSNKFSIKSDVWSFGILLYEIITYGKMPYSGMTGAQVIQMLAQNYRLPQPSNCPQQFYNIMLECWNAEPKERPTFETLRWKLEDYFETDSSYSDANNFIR
inhibition at 0.1 µM [1] [%],inhibition at 1 µM [1] [%],inhibition at 0.1 µM [2] [%],inhibition at 1 µM [2] [%],inhibition at 0.1 µM [3] [%],inhibition at 1 µM [3] [%],inhibition at 0.1 µM [4] [%],inhibition at 1 µM [4] [%],inhibition at 0.1 µM [5] [%],inhibition at 1 µM [5] [%],Compound
91,99,64,95,17,70,22,67,45,84,Cc1cccc(C(=O)Nc2cccc([C@H](C)Nc3cncc(-c4ccc(S(N)(=O)=O)cc4)n3)c2)c1 [Compound 77]
98,100,74,102,24,92,66,95,53,90,"C[C@H](Nc1cncc(Cl)n1)c1cccc(NC(=O)c2cccc(C(F)(F)F)c2)c1 [Compound 114, (S)—N-(3-(1-(6-chloropyrazin-2-ylamino)ethyl)phenyl)-3-(trifluoromethyl)benzamide]"
99,100,84,99,18,76,19,75,73,96,Cc1cccc(C(=O)Nc2cccc([C@H](C)Nc3cncc(-c4ccc(N5CCN(C)CC5)cc4)n3)c2)c1 [Compound 129]
80,98,23,84,-4,34,1,36,0,16,"Cc1cccc(C(=O)Nc2cccc([C@H](C)Nc3cncc(C(N)=O)n3)c2)c1 [Compound 133, (S)-6-(1-(3-(3-methylbenzamido)phenyl)ethylamino)pyrazine-2-carboxamide]"
88,96,55,82,0,58,8,58,24,77,"Cc1cccc(C(=O)Nc2cccc([C@H](C)Nc3cncc(-n4ccnc4)n3)c2)c1 [Compound 143, (S)—N-(3-(1-(6-(1H-imidazol-1-yl)pyrazin-2-ylamino)ethyl)phenyl)-3-methylbenzamide]"
94,100,90,100,44,91,68,92,50,89,Cc1cccc(C(=O)Nc2cccc([C@H](C)Nc3cncc(-c4cccc(N5CCOCC5)c4)n3)c2)c1 [Compound 147]
99,100,96,99,79,99,89,96,95,97,C[C@H](Nc1cncc(-c2ccc(N3CCN(C)CC3)cc2)n1)c1cccc(NC(=O)c2cccc(C(F)(F)F)c2)c1 [Compound 148]
95,100,94,100,46,94,89,96,68,95,C[C@H](Nc1cncc(-c2cccc(N3CCOCC3)c2)n1)c1cccc(NC(=O)c2cccc(C(F)(F)F)c2)c1 [Compound 149]
100,100,96,101,69,98,39,95,85,98,Cc1cccc(C(=O)Nc2ccc(C)c([C@H](C)Nc3cncc(Cl)n3)c2)c1 [Compound 168]
